Source: patent US9221834B2 (Merck Sharp & Dohme Corp., priority 2010, dated 2015)

Each compound was assayed against T1, recombinant CETP (rCETP) (Homo sapiens, UniProt P11597) (assay: RTA assay using recombinant CETP (2% RTA)). Details: RTA assay in 2% human serum; read-out: IC50.
T1 sequence (P11597 18-493): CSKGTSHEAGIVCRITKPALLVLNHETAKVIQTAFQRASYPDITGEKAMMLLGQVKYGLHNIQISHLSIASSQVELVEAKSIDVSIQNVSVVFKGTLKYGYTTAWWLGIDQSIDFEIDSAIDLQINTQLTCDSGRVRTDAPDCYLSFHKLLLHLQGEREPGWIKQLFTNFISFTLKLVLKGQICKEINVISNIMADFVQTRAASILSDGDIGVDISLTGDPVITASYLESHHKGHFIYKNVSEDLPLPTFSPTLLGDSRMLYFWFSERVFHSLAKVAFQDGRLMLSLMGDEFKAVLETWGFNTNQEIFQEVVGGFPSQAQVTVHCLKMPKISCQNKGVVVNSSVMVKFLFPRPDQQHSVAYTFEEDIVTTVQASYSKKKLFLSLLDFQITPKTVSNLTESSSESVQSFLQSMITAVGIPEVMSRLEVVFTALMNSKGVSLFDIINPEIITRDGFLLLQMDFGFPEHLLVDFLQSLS
Assay type: biochemical
Outline: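 Compounds preincubated 1 h at 37 °C with assay cocktail (CETP buffer: 50 mM Tris pH 7.4, 100 mM NaCl, 1 mM EDTA; human HDL acceptor); transfer started with [3H]cholesteryl oleate- or [3H]triolein-labelled LDL, 60 min at 37 °C. LDL PEG-precipitated; supernatant counted by scintillation, blank-corrected; IC50 from 4-parameter sigmoidal fit of % inhibition vs DMSO control.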

Q: How did the IC50 turn out when `COC(=O)CCc1ccc(OC2CC2)c(-c2ccc(N3CCC3)nc2CN2C(=O)O[C@H](c3cc(C(F)(F)F)cc(C(F)(F)F)c3)[C@@H]2C)c1` [Example 213] was run?
A: The IC50 was 0.014 µM.

Q: Which IC50 does the source give for `COC(=O)CCc1ccc(OC2CC2)c(-c2c(C)cc(N3CCC3)nc2CN2C(=O)O[C@H](c3cc(C(F)(F)F)cc(C(F)(F)F)c3)[C@@H]2C)c1` [Example 215] here?
A: The IC50 was 0.006 µM.

Q: `COc1ccc([C@H]2CC[C@H](C(=O)O)CC2)cc1-c1ccc(N2CCC2)nc1CN1C(=O)O[C@H](c2cccc(C(F)(F)F)c2)[C@@H]1C` [Example 219] was tested. Which IC50 did it give?
A: Its IC50 is 0.044 µM.

Q: How did the IC50 turn out when `COc1ccc(C(C)(C)CC(=O)O)cc1-c1ccc(N2CCC2)nc1CN1C(=O)O[C@H](c2cccc(C(F)(F)F)c2)[C@@H]1C` [Example 220] was run?
A: Its IC50 is 0.33 µM.

Q: `COc1ccc(CC(C)(C)C(=O)O)cc1-c1ccc(N2CCC2)nc1CN1C(=O)O[C@H](c2cccc(C(F)(F)F)c2)[C@@H]1C` [Example 221] was tested. Which IC50 did it give?
A: The IC50 was 0.145 µM.

Q: For `COc1ccc(CCC(=O)O)cc1-c1ccc(N2CCC2)nc1CN1C(=O)O[C@H](c2cccc(C)c2)[C@@H]1C` [Example 223], which IC50 is on record?
A: The IC50 was 0.289 µM.

Q: `COc1ccc([C@H]2CC[C@H](C(=O)O)CC2)cc1-c1ccc(N2CCC2)nc1CN1C(=O)O[C@H](c2cc(C)cc(C)c2)[C@@H]1C` [Example 224] was tested. Which IC50 did it give?
A: Its IC50 is 0.014 µM.

Q: How did the IC50 turn out when `COc1ccc([C@H]2CC[C@H](C(=O)O)CC2)cc1-c1ccc(N2CCC2)nc1CN1C(=O)O[C@H](c2cccc(C)c2)[C@@H]1C` [Example 225] was run?
A: Its IC50 is 0.066 µM.

Q: With `COc1ccc(C(C)(C)CC(=O)O)cc1-c1ccc(N2CCC2)nc1CN1C(=O)O[C@H](c2cc(C)cc(C)c2)[C@@H]1C` [Example 226] as the compound, how does the IC50 read?
A: Its IC50 is 0.11 µM.

Q: For `COc1ccc(CC(C)(C)C(=O)O)cc1-c1ccc(N2CCC2)nc1CN1C(=O)O[C@H](c2cc(C)cc(C)c2)[C@@H]1C` [Example 227], which IC50 is on record?
A: Its IC50 is 0.065 µM.

Q: Which IC50 does the source give for `COc1ccc(CCC(=O)O)cc1-c1ccc(N2CCC2)nc1CN1C(=O)O[C@H](c2cc(C)cc(C)c2)[C@@H]1C` [Example 228, 3-[3-(6-azetidin-1-yl-2-{[(4S,5R)-5-(3,5-dimethylphenyl)-4-methyl-2-oxo-1,3-oxazolidin-3-yl]methyl}pyridin-3-yl)-4-methoxyphenyl]propanoic acid] here?
A: Its IC50 is 0.047 µM.

Q: How did the IC50 turn out when `COc1cc2c(cc1-c1ccc(N3CCC3)nc1CN1C(=O)O[C@H](c3cccc(C(F)(F)F)c3)[C@@H]1C)[C@H](CC(=O)O)CC2` [Example 229] was run?
A: The IC50 was 0.161 µM.

Q: For `COc1cc2c(cc1-c1ccc(N3CCC3)nc1CN1C(=O)O[C@H](c3cc(C)cc(C)c3)[C@@H]1C)[C@H](CC(=O)O)CC2` [Example 230], which IC50 is on record?
A: The IC50 was 0.095 µM.

Q: For `COc1cc2c(cc1-c1ccc(N3CCC3)nc1CN1C(=O)O[C@H](c3cccc(C)c3)[C@@H]1C)[C@H](CC(=O)O)CC2` [Example 231], which IC50 is on record?
A: Its IC50 is 0.403 µM.

Q: Which IC50 does the source give for `COc1ccc([C@@H]2C[C@H]2C(=O)O)cc1-c1ccc(N2CCC2)nc1CN1C(=O)O[C@H](c2cccc(C(F)(F)F)c2)[C@@H]1C` [Example 232] here?
A: The IC50 was 0.054 µM.

Q: `COc1ccc([C@@H]2C[C@H]2C(=O)O)cc1-c1ccc(N2CCC2)nc1CN1C(=O)O[C@H](c2cc(C)cc(C)c2)[C@@H]1C` [Example 233] was tested. Which IC50 did it give?
A: Its IC50 is 0.038 µM.

Q: How did the IC50 turn out when `COc1ccc([C@@H]2C[C@H]2C(=O)O)cc1-c1ccc(N2CCC2)nc1CN1C(=O)O[C@H](c2cccc(C)c2)[C@@H]1C` [Example 234] was run?
A: The IC50 was 0.267 µM.

Q: For `COc1ccc(-c2ccc(C(=O)O)cc2C)cc1-c1ccc(N2CCC2)nc1CN1C(=O)O[C@H](c2cccc(C(F)(F)F)c2)[C@@H]1C` [Example 235], which IC50 is on record?
A: The IC50 was 0.006 µM.

Q: How did the IC50 turn out when `COc1ccc(-c2ccc(C(=O)O)cc2C)cc1-c1ccc(N2CCC2)nc1CN1C(=O)O[C@H](c2cc(C)cc(C)c2)[C@@H]1C` [Example 236] was run?
A: Its IC50 is 0.013 µM.

Q: With `COc1ccc(-c2ccc(C(=O)O)cc2C)cc1-c1ccc(N2CCC2)nc1CN1C(=O)O[C@H](c2cccc(C)c2)[C@@H]1C` [Example 237] as the compound, how does the IC50 read?
A: Its IC50 is 0.01 µM.

Q: For `COc1cc(F)c(-c2ccc(C(=O)O)cc2C)cc1-c1ccc(N2CCC2)nc1CN1C(=O)O[C@H](c2cc(C#N)cc(C(F)(F)F)c2)[C@@H]1C` [Example 247], which IC50 is on record?
A: The IC50 was 0.044 µM.

Q: For `C[C@H]1[C@@H](c2cc(C(F)(F)F)cc(C(F)(F)F)c2)OC(=O)N1Cc1nc(N2CCC2)ccc1-c1cc(CCC(=O)O)ccc1OC1CC1` [Example 248], which IC50 is on record?
A: The IC50 was 0.019 µM.

Q: `COc1ccc(CCC(N)=O)cc1-c1ccc(N2CCC2)nc1CN1C(=O)O[C@H](c2cc(C)cc(C)c2)[C@@H]1C` [Example 249, 3-[3-(6-azetidin-1-yl-2-{[(4S,5R)-5-(3,5-dimethylphenyl)-4-methyl-2-oxo-1,3-oxazolidin-3-yl]methyl}pyridin-3-yl)-4-methoxyphenyl]propanamide] was tested. Which IC50 did it give?
A: Its IC50 is 0.105 µM.

Q: For `COc1ccc([C@@H]2C[C@H]2C(N)=O)cc1-c1ccc(N2CCC2)nc1CN1C(=O)O[C@H](c2cc(C)cc(C)c2)[C@@H]1C` [Example 250], which IC50 is on record?
A: The IC50 was 0.054 µM.

Q: `COc1ccc([C@H]2CC[C@H](C(N)=O)CC2)cc1-c1ccc(N2CCC2)nc1CN1C(=O)O[C@H](c2cccc(C(F)(F)F)c2)[C@@H]1C` [Example 251] was tested. Which IC50 did it give?
A: Its IC50 is 0.024 µM.

Q: With `COc1ccc([C@@H]2C[C@H]2C(N)=O)cc1-c1ccc(N2CCC2)nc1CN1C(=O)O[C@H](c2cccc(C(F)(F)F)c2)[C@@H]1C` [Example 252] as the compound, how does the IC50 read?
A: Its IC50 is 0.063 µM.

Q: `COc1ccc([C@H]2CC[C@H](C(N)=O)CC2)cc1-c1ccc(N2CCC2)nc1CN1C(=O)O[C@H](c2cc(C)cc(C)c2)[C@@H]1C` [Example 253, trans-4-[3-(6-azetidin-1-yl-2-{[(4S,5R)-5-(3,5-dimethylphenyl)-4-methyl-2-oxo-1,3-oxazolidin-3-yl]methyl}pyridin-3-yl)-4-methoxyphenyl]cyclohexanecarboxamide] was tested. Which IC50 did it give?
A: Its IC50 is 0.023 µM.

Q: `COc1ccc(CC(N)=O)cc1-c1ccc(N2CCC2)nc1CN1C(=O)O[C@H](c2cc(C(F)(F)F)cc(C(F)(F)F)c2)[C@@H]1C` [Example 254, 2-{3-[6-azetidin-1-yl-2-({(4S,5R)-5-[3,5-bis(trifluoromethyl)phenyl]-4-methyl-2-oxo-1,3-oxazolidin-3-yl}methyl)pyridin-3-yl]-4-methoxyphenyl}acetamide] was tested. Which IC50 did it give?
A: The IC50 was 0.015 µM.

Q: How did the IC50 turn out when `COc1ccc([C@H]2CC[C@H](C#N)CC2)cc1-c1ccc(N2CCC2)nc1CN1C(=O)O[C@H](c2cc(C)cc(C)c2)[C@@H]1C` [Example 255] was run?
A: The IC50 was 0.395 µM.

Q: `COc1ccc(CC#N)cc1-c1ccc(N2CCC2)nc1CN1C(=O)O[C@H](c2cc(C(F)(F)F)cc(C(F)(F)F)c2)[C@@H]1C` [Example 256, {3-[6-azetidin-1-yl-2-({(4S,5R)-5-[3,5-bis(trifluoromethyl)phenyl]-4-methyl-2-oxo-1,3-oxazolidin-3-yl}methyl)pyridin-3-yl]-4-methoxyphenyl}acetonitrile] was tested. Which IC50 did it give?
A: Its IC50 is 0.005 µM.

Q: Which IC50 does the source give for `COc1ccc(-c2ccc(O)c(C(C)=O)c2)cc1-c1ccc(N2CCC2)nc1CN1C(=O)O[C@H](c2cc(C(F)(F)F)cc(C(F)(F)F)c2)[C@@H]1C` [Example 257, (4S,5R)-3-{[3-(3′-acetyl-4′-hydroxy-4-methoxybiphenyl-3-yl)-6-azetidin-1-ylpyridin-2-yl]methyl}-5-[3,5-bis(trifluoromethyl)phenyl]-4-methyl-1,3-oxazolidin-2-one] here?
A: Its IC50 is 0.09 µM.

Q: Which IC50 does the source give for `COc1ccc(CO)cc1-c1ccc(N2CCC2)nc1CN1C(=O)O[C@H](c2cc(C(F)(F)F)cc(C(F)(F)F)c2)[C@@H]1C` [Example 258] here?
A: Its IC50 is 0.007 µM.

Q: For `COc1ccc(CCO)cc1-c1ccc(N2CCC2)nc1CN1C(=O)O[C@H](c2cc(C(F)(F)F)cc(C(F)(F)F)c2)[C@@H]1C` [Example 259, (4S,5R)-3-({6-azetidin-1-yl-3-[5-(2-hydroxyethyl)-2-methoxyphenyl]pyridin-2-yl}methyl)-5-[3,5-bis(trifluoromethyl)phenyl]-4-methyl-1,3-oxazolidin-2-one], which IC50 is on record?
A: Its IC50 is 0.004 µM.

Q: `C[C@H]1[C@@H](c2cc(C(F)(F)F)cc(C(F)(F)F)c2)OC(=O)N1Cc1nc(N2CCC2)ccc1-c1cc(CCCO)ccc1OC1CC1` [Example 260] was tested. Which IC50 did it give?
A: Its IC50 is 0.012 µM.

Q: For `COCCCc1ccc(OC2CC2)c(-c2ccc(N3CCC3)nc2CN2C(=O)O[C@H](c3cc(C(F)(F)F)cc(C(F)(F)F)c3)[C@@H]2C)c1` [Example 261], which IC50 is on record?
A: The IC50 was 0.042 µM.

Q: How did the IC50 turn out when `COc1ccc(CCCO)cc1-c1ccc(N2CCC2)nc1CN1C(=O)O[C@H](c2cc(C(F)(F)F)cc(C(F)(F)F)c2)[C@@H]1C` [Example 264, (4S,5R)-3-({6-azetidin-1-yl-3-[5-(3-hydroxypropy)-2-methoxyphenyl]pyridin-2-yl}methyl)-5-[3,5-bis(trifluoromethyl)phenyl]-4-methyl-1,3-oxazolidin-2-one] was run?
A: Its IC50 is 0.002 µM.

Q: For `COc1ccc(Cc2nc[nH]n2)cc1-c1ccc(N2CCC2)nc1CN1C(=O)O[C@H](c2cc(C(F)(F)F)cc(C(F)(F)F)c2)[C@@H]1C` [Example 265], which IC50 is on record?
A: Its IC50 is 0.023 µM.

Q: For `COc1ccc(Cc2nn[nH]n2)cc1-c1ccc(N2CCC2)nc1CN1C(=O)O[C@H](c2cc(C(F)(F)F)cc(C(F)(F)F)c2)[C@@H]1C` [Example 266, (4S,5R)-3-({6-azetidin-1-yl-3-[2-methoxy-5-(2H-tetrazol-5-ylmethyl)phenyl]pyridin-2-yl}methyl)-5-[3,5-bis(trifluoromethyl)phenyl]-4-methyl-1,3-oxazolidin-2-one], which IC50 is on record?
A: Its IC50 is 0.079 µM.

Q: Which IC50 does the source give for `COc1ccc(Cc2ncc[nH]2)cc1-c1ccc(N2CCC2)nc1CN1C(=O)O[C@H](c2cc(C(F)(F)F)cc(C(F)(F)F)c2)[C@@H]1C` [Example 267, (4S,5R)-3-({6-azetidin-1-yl-3-[5-(1H-imidazol-2-ylmethyl)-2-methoxyphenyl]pyridin-2-yl}methyl)-5-[3,5-bis(trifluoromethyl)phenyl]-4-methyl-1,3-oxazolidin-2-one] here?
A: The IC50 was 0.067 µM.
